From patent publication US4610987A, “Imidazoquinazolin-2-one compounds” (Daiichi Seiyaku Co., Ltd., priority 1983, dated 1986)
Counter-ions that a name gives are not always drawn. Like-named read-outs stand apart in the source and are kept apart here.

Experiments:
[1] = system: platelet aggregation (rat platelet-rich-plasma); experiment: Test of Platelet Aggregation Inhibition (in vitro), rat PRP; type: cell-based, Wistar Imamichi rat; conditions: for IC50: Platelet, in vitro, rat blood
Description: (§1) The test was performed as follows in accordance with the method of Ashida et al, Thrombosis and Haemostasis, Vol. 40, 542 (1979).
(§2) Blood was taken by puncture from the heart of a Wistar Imamichi rat under anesthesia with pentobarbital into a syringe containing 1/10 volume of a 3.13% aqueous solution of sodium citrate dihydrate, and the citrated blood was centrifuged to obtain a platelet-rich-plasma (PRP). In the same manner, citrated blood was collected from the vein of a healthy human who had not taken aspirin or any other anti-inflammatory agent since before 10 days, followed by centrifugation to obtain PRP. 5 μl of each test compound was added to 0.445 ml of each of these PRP samples, and the system was warmed at 30° C. for 1 minute. 50 μl of an aggregation inducer (ADP or collagen) was then added thereto, and platelet aggregation was determined according to the method of Born, Nature, Vol. 194, 927 (1962).

platelet aggregation [2] = experiment: Test of Platelet Aggregation Inhibition (ex vivo, p.o.); type: in vivo, Wistar Imamichi rat; conditions: for inhibition at 10 mg/kg: Platelet, po, ex vivo, rat, 10 mg/Kg p.o., 1 hour, *P<0.05, **P<0.01, ***P<0.001
Description: One hour later, citrated blood was taken from the heart, and platelet aggregation was determined in the same manner as described in the in vitro test. The inhibitory activity was compared with that of control and expressed in terms of percent inhibition.

[3] = system: platelet aggregation induced by B16 melanoma cells; experiment: Inhibition on Platelet Aggregation Induced by Cancer Cells (in vitro), B16; type: cell-based, C57BL/6 mouse; parameters: key: +: Aggregation was observed.; ±: Aggregation was partially inhibited.; -: No aggregation was observed
Description: (§3) It is known nowadays that platelet aggregation plays an important role in metastasis of cancers. […] Tanaka et al. The effect of the compounds of this invention to inhibit the above-described cancer cell-induced platelet aggregation was tested as follows. Cell suspensions of B16 or 3LL were prepared according to the method of Tanaka et al, Invarsion and Metastasis, Vol. 2, 289 (1982). […] Platelet aggregation of the sample system was determined according to the method of Born, and the platelet aggregation inhibitory activity was expressed by the following scale: […]

[4] = system: platelet aggregation induced by Lewis lung cancer (3LL) cells; experiment: Inhibition on Platelet Aggregation Induced by Cancer Cells (in vitro), 3LL; type: cell-based, C57BL/6 mouse; parameters: key: +: Aggregation was observed.; ±: Aggregation was partially inhibited.; -: No aggregation was observed
Description: as §3

human platelet PDE I = human platelet PDE I (Homo sapiens, UniProt O76074); experiment: Inhibitory activity on phosphodiesterase, platelet PDE I (cGMP); type: biochemical; conditions: cGMP substrate
Description: (§4) Phosphodiesterase fractions were separated from 105,000×g of supernatant fractions from human platelets and heart by DEAE-cellulose column chromatography using the method of Timothy et al. (Arch. Biochem. Biophy. 196, 465-474, 1979) with minor modifications. These fractions were designated PDE I, PDE II and PDE III, depending upon the order of their emergence from the DEAE-cellulose column.
(§5) Phosphodiesterase activity was measured by the method of Thompson and Appleman (Biochemistry 10, 311-316, 1971) with slight modifications. The reaction mixture consisted of 25 mM of Tris-HCl (pH 7.4), 5 mM of MgCl2, 1 μM of [^3 H]-cAMP or cGMP (approximate 20,000 cpm), various concentrations of a test compound and the enzyme preparation. After incubation for 10 minutes at 30° C., the reaction was terminated by boiling the reaction mixture for 45 seconds. 5'-[^3 H]-AMP or GMP formed by phosphodiesterase was converted to [^3 H]adenosine or [^3 H]quanosine by snake venom (Botherop Atrox) containing 5'-nucleotidase and the product isolated by a cation exchange resin was counted in a liquid scintillation counter.

human platelet PDE II = experiment: Inhibitory activity on phosphodiesterase, platelet PDE II (cGMP); type: biochemical; conditions: cGMP substrate
Description: as §4, §5

human platelet PDE III = human platelet PDE III (Homo sapiens, UniProt Q14432); experiment: biochemical; conditions: for IC50: cAMP substrate
Sequence of human platelet PDE III (Q14432 whole entry): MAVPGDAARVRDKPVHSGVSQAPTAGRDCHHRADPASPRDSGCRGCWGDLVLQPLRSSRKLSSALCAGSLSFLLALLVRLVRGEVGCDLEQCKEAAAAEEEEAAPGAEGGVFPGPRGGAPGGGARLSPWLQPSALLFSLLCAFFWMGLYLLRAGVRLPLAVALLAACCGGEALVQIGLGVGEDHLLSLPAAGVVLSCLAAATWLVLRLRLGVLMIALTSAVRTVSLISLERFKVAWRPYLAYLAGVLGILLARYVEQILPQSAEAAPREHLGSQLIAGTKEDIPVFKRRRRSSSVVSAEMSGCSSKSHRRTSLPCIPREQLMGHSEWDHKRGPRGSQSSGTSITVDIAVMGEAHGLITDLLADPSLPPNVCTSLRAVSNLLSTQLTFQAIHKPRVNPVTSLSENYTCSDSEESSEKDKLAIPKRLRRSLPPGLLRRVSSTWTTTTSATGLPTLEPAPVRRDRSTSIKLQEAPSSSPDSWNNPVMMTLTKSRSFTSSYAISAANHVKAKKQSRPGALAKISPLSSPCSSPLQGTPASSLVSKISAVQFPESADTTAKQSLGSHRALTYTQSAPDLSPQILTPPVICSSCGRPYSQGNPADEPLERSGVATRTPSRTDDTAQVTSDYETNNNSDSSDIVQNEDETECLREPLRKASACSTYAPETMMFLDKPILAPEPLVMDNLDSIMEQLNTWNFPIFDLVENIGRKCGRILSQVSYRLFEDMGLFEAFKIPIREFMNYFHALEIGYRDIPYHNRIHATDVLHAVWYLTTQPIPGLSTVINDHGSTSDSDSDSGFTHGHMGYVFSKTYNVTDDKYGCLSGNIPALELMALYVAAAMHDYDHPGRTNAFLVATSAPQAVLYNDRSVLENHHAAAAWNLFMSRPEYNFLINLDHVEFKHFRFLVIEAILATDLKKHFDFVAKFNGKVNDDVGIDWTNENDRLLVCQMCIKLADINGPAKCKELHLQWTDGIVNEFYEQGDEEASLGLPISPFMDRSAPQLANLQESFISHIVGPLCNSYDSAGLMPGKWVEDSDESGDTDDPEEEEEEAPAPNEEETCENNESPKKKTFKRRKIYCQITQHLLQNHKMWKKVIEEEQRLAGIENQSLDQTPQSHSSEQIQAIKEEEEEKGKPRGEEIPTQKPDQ
Description: as §4, §5

human heart PDE I = experiment: Inhibitory activity on phosphodiesterase, heart PDE I (cGMP); type: biochemical; conditions: cGMP substrate
Description: as §4, §5

human heart PDE III = experiment: Inhibitory activity on phosphodiesterase, heart PDE III (cAMP); type: biochemical; conditions: for activity on heart PDE (in words): Table 6; for IC50: cAMP substrate
Description: as §4, §5

[5] = Solubility Test (water-solubility)
platelet aggregation [6] = experiment: Test of Platelet Aggregation Inhibition (ex vivo; i.v.); type: in vivo, Wistar Imamichi rat; conditions: iv, 10 min, rat, i.v. 1.0 mg/Kg/min, 10 min
Description: As test animals, 5 to 6 Wistar Imamichi rats (body weight: about 260 g) that had been allowed food and water ad libitum were used per group. The test compound was dissolved in a physiological saline solution and continuously injected over a period of 10 or 15 minutes to the rats under anesthesia with pentobarbital through the femoral vein. Immediately after completion of the administration, citrated blood was collected from the heart, and platelet aggregation was determined in the same manner as in the test in vitro in Test Example 2.

[7] = system: platelet aggregation (human platelet-rich-plasma); experiment: Test of Platelet Aggregation Inhibition (in vitro), human PRP; type: cell-based; conditions: human blood, ADP-induced
Description: as §1, §2

circulatory system = experiment: Test of Influence on Circulatory System (blood pressure, heart beats); type: in vivo, SLC-Wistar rat; conditions: rat, 50 mg/Kg p.o.
Description: 5 or 6 male normal SLC-Wistar rats per group (body weight: 205-255 g) orally received 50 mg/Kg of the test compound, and the blood pressure (tail cuff method) and the heart beats were measured with the passage of time in order to elucidate influences of the test compound on the circulatory system.

[8] = ADP-induced, read-out: IC50, platelet aggregation inhibition in vitro, ADP
[9] = collagen-induced, read-out: IC50, platelet aggregation inhibition in vitro, Collagen
[10] = ADP, read-out: ex vivo % inhibition of platelet aggregation, ADP
[11] = collagen, read-out: ex vivo % inhibition of platelet aggregation, Collagen
[12] = ADP, *P<0.05, **P<0.01, read-out: Percent Inhibition of platelet aggregation, ADP
[13] = collagen, *P<0.05, **P<0.01, read-out: Percent Inhibition of platelet aggregation, Collagen

Row | SMILES | IC50 [1, 8] [nM] | IC50 [1, 9] [nM] | inhibition at 10 mg/kg (platelet aggregation [2]; [10]) [%] | inhibition at 10 mg/kg (platelet aggregation [2]; [11]) [%] | IC50 (human platelet PDE I) [nM] | IC50 (human platelet PDE II) [nM] | IC50 Ratio (PDE II) Heart/Platelet (human platelet PDE III) | IC50 (human platelet PDE III) [nM] | IC50 (human heart PDE I) [nM] | IC50 (human heart PDE III) [nM] | also measured
1 | Cc1cc2c(cc1N1CCCCC1)CN1CC(=O)NC1=N2 [Example 18] | 5400 | 580 |  |  |  |  |  |  |  |  | 
2 | CN(C)c1cc2c(cc1Cl)NC1=NC(=O)CN1C2 [Example 15] | 1100 | 440 | 28 | 49 | 3900 | 5100 | 1.7 | 63 | > 100000 | 110 | platelet aggregation inhibitory activity (in words) [1]: strong platelet aggregation inhibitory activity; Inhibition on platelet aggregation induced by B16 ([3]; sample concn. 0.1 μM): +; Inhibition on platelet aggregation induced by B16 ([3]; sample concn. 0.3 μM): -; Inhibition on platelet aggregation induced by B16 ([3]; sample concn. 1 μM): -; Inhibition on platelet aggregation induced by B16 ([3]; sample concn. 3 μM): -; Inhibition on platelet aggregation induced by 3LL ([4]; sample concn. 0.3 μM): ±; Inhibition on platelet aggregation induced by 3LL ([4]; sample concn. 1 μM): -; Inhibition on platelet aggregation induced by 3LL ([4]; sample concn. 3 μM): -; activity on heart PDE (in words) (human heart PDE III): strong activity on heart PDE; water-solubility (in words) [5]: water-soluble
3 | Cl.O=C1CN2Cc3c(sc4c3CCCC4)N=C2N1 [DH-6471, reference compound] |  |  |  |  | > 100000 | > 100000 | 7.1 | 65 | > 10000 | 460 | 
4 | O=C1CN2Cc3ccc(N4CCOCC4)cc3N=C2N1 [Example 8] |  |  |  |  |  |  |  |  |  |  | inhibition at 1 mg/kg (platelet aggregation [6]; [12]): 16.5%; inhibition at 1 mg/kg (platelet aggregation [6]; [13]): 48.5%
5 | CN(C)c1ccc2c(c1Cl)CN1CC(=O)NC1=N2 [Example 22] | 7000 | 1200 | 64 | 86 | 1600 | 2900 | 1.2 | 150 | > 100000 | 180 | platelet aggregation inhibitory activity (in words) [1]: strong platelet aggregation inhibitory activity; inhibition at 1 mg/kg (platelet aggregation [6]; [12]): 23.5%; inhibition at 1 mg/kg (platelet aggregation [6]; [13]): 100%; activity on heart PDE (in words) (human heart PDE III): strong activity on heart PDE; water-solubility (in words) [5]: water-soluble
6 | O=C1CN2Cc3cc(N4CCOCC4)c(Cl)cc3N=C2N1 [Example 17] | 360 | 100 | 47 | 68 |  |  |  |  |  |  | 
7 | CC1CCCCN1c1ccc2c(c1)CN1CC(=O)NC1=N2 (stereo not shown) [Example 5] | 2000 | 1700 |  |  | 45000 | 57000 | 2.3 | 350 | > 50000 | 800 | platelet aggregation inhibitory activity (in words) [1]: strong platelet aggregation inhibitory activity; activity on heart PDE (in words) (human heart PDE III): strong activity on heart PDE; water-solubility (in words) [5]: water-soluble
8 | O=C1CN2Cc3cc(N4CCOCC4)ccc3N=C2N1 [Example 28] | 5000 | 2000 |  |  |  |  |  |  |  |  | 
9 | CN(C)c1cccc2c1CN1CC(=O)NC1=N2 [Example 2] | 2700 | 1500 |  |  |  |  |  |  |  |  | 
10 | CCN(CC)c1ccc2c(c1Cl)CN1CC(=O)NC1=N2 [Example 23] | 5600 | 1300 | 25 | 70 |  |  |  |  |  |  | 
11 | O=C1CN2Cc3cc(N4CCCC4)ccc3N=C2N1 [Example 26, 7-pyrrolidino-1,2,3,5-tetrahydroimidazo[2,1-b]quinazolin-2-one dihydrochloride] | 2600 | 1900 |  |  |  |  |  |  |  |  | 
12 | O=C1CN2Cc3c(ccc(N4CCCCC4)c3Cl)N=C2N1 [Example 9] | 7900 | 1200 | 25 | 32 |  |  |  |  |  |  | 
13 | Cl.Cl.Nc1ccc2c(c1)CN1CC(=O)NC1=N2 [BL-7-NH2, 7-amino-1,2,3,5-tetrahydroimidazo[2,1-b]quinazolin-2-one dihydrochloride, reference compound] | 170000 | 16000 |  |  |  |  |  |  |  |  | platelet aggregation inhibitory activity (in words) [1]: scarecely exhibited platelet aggregation inhibitory activity; IC50 [7]: 50000 nM
14 | O=C1CN2Cc3cc(N4CCCCC4)ccc3N=C2N1 [7-Piperidino Compound, reference compound] |  |  |  |  | 93000 | 54000 | 5.3 | 150 | > 100000 | 800 | 
15 | Nc1cc(-c2ccncc2)c[nH]c1=O [Amrinone, 5Amino-(3,4bipyridin)-6(1H)--one, reference compound] |  |  |  |  | > 100000 |  |  |  | > 100000 | 34000 | 
16 | Cc1cccc2c1CN1CC(=O)NC1=N2.Cl [BL-3459, 6-methyl-1,2,3,5-tetrahydroimidazo[2,1-b]quinazolin-2-one hydrochloride] | 5000 | 760 | 31 | 54 |  |  |  |  |  |  | IC50 [7]: 1700 nM; aggregation inhibitory activity in ADP- or collagen-induced aggregation (in words) (platelet aggregation [2]; orally administered, Table 2): widely varied depending on the individual animal and, therefore, cannot be regarded significant; Increase in Heart Beat (circulatory system; 1 hr, **P<0.01): 18%; Reduction in Blood Pressure (circulatory system; 1 hr, *P<0.05, **P<0.01): 23%; Increase in Heart Beat (circulatory system; 2 hr, **P<0.01): 20%; Reduction in Blood Pressure (circulatory system; 2 hr, *P<0.05, **P<0.01): 28%; Increase in Heart Beat (circulatory system; 3 hr, **P<0.01): 17%; Reduction in Blood Pressure (circulatory system; 3 hr, **P<0.01): 26%; Increase in Heart Beat (circulatory system; 5 hr, **P<0.01): 18%; Reduction in Blood Pressure (circulatory system; 5 hr, **P<0.01): 34%; Increase in Heart Beat (circulatory system; 6 hr, *P<0.05, **P<0.01): 19%; Reduction in Blood Pressure (circulatory system; 6 hr, *P<0.05, **P<0.01): 35%; Reduction in Blood Pressure (circulatory system; 24 hr, *P<0.05): 12%; solubility ([5]; tap water, pH 2): < 100 µg/mL; solubility ([5]; water, pH 4, water): < 10 µg/mL
